Holding throughout (format): cell-based
Experiment [1] concerns the target T1, human prostanoid FP receptor (Homo sapiens, UniProt P43088).
T1 construct: expressed in transfected cells
As to the kind of experiment: FLIPR Ca2+ signaling antagonist assay, FP receptor stable cell line. The settings on record: HEK-293 EBNA stable cells, standard agonist 17-phenyl-PGF2α; NA = inactive (no antagonism or Kb≧10,000 nM). As to the method: (§1) The above compounds were tested for PG antagonist activity as follows using human recombinant prostanoid receptor (DP1, EP1-4, FP, IP and TP) stable cell lines:
(§2) In order to measure the response of Gs and Gi coupled prostanoid receptors as a Ca^2+ signal, chimeric G protein cDNAs were used. Stable cell lines over-expressing human prostanoid DP1, EP1-4, FP, IP, and TP receptors were established as follows:
(§3) Briefly, human prostanoid DP1, EP2, and EP4 receptor cDNAs were co-transfected with chimeric Gqs cDNA containing a haemagglutanin (HA) epitope; human prostanoid EP3 receptors were co-transfected with chimeric Gqi-HA; human EP1, FP, IP, and TP receptor cDNAs were expressed with no exogenous G-proteins. Gqs and Gqi chimeric cDNAs (Molecular Devices, Sunnyvale, Calif., U.S.A.), as well as cDNAs of prostanoid receptors, were cloned into a pCEP4 vector with a hygromycin B selection marker. Transfection into HEK-293 EBNA (Epstein-Barr virus nuclear antigen) cells was achieved by the FuGENE 6 transfection Reagent (Roche Applied Science, Indianapolis, Ind., USA). Stable transfectants were selected according to hygromycin resistance. Because Gqs and Gqi contained an HA epitope, G-protein expression was detected by Western blotting analysis using anti-mouse HA monoclonal antibody and horseradish peroxidase (HRP)-conjugated secondary antibody, while functional expression of prostanoid receptors was detected by FLIPR screening (Matias et al., 2004). These stable cell lines were validated using previously published antagonists at 10 μM against serial dilutions of standard agonists by FLIPR functional assays for Ca^2+ Signaling (as described below).
(§4) Ca^2+ signaling studies were performed using a FLIPR TETRA system (Molecular Devices, Sunnyvale, Calif., USA) in the 384-format. This is a high-throughput instrument for cell-based assays to monitor Ca^2+ signaling associated with GPCRs and ion channels. Cells were seeded at a density of 5×10^4 cells/well in BioCoat poly-D-lysine coated, black wall, clear bottom 384-well plates (BD Biosciences, Franklin lakes, NJ, USA) and allowed to attach overnight in an incubator at 37° C. The cells were then washed twice with HBSS-HEPES buffer (Hanks' balanced salt solution without bicarbonate and phenol red, 20 mM HEPES, pH 7.4) using an ELx405 Select CW Microplate Washer (BioTek, Winooski, Vt., USA). After 60 min of dye-loading in the dark using the Ca^2+-sensitive dye Fluo-4AM (Invitrogen, Carlsbad, Calif., USA), at a final concentration of 2×10^−6M, the plates were washed 4 times with HBSS-HEPES buffer to remove excess dye and leaving 50 μl of buffer in each well. The plates were then placed in the FLIPR TETRA instrument and allowed to equilibrate at 37° C. AGN-211377 was added in a 25 μl volume to each well to give final concentrations of 0.1 μM, 0.3 μM, 1 μM, 3 μM, 10 μM, and 30 μM; or 0.067 μM, 0.1 μM, 0.2 μM, 0.3 μM, 0.67 μM, and 1 μM for cells over-expressing TP receptors. After 4.5 minutes, a 7-point serial dilution of the standard agonist for the corresponding receptor, in a 25 μl volume was injected at the final concentrations from 10^−11M to 10^−5M in 10-fold serial dilution increments for cells expressing human recombinant DP1, EP1, EP2, EP3, EP4, FP, and IP receptors. The dose range for the standard agonist for human recombinant TP receptors was from 10^−12M to 10^−6M. HBSS-HEPES buffer was used as the negative control for the standard agonists. Cells were excited with LED (light emitting diode) excitation at 470-495 nm and emission was measured through an emission filter at 515-575 nm. Assay plates were read for 3.5 minutes using the FLIPR^TETRA. The peak increase in fluorescence intensity was recorded for each well. On each plate, negative controls, dose response of positive controls, and co-treatments of antagonist-agonist for each dose were in triplicates. Standard agonists were as follows: DP=BW 245C, EP1-EP4=PGE2, FP=17-phenyl-PGF2α, IP=Cicaprost, and TP=U-46619. […]

Experiment [2] addresses T2, human prostanoid DP1 receptor (Homo sapiens, UniProt Q13258).
T2 construct: expressed in transfected cells
T2 sequence (Q13258 1-359): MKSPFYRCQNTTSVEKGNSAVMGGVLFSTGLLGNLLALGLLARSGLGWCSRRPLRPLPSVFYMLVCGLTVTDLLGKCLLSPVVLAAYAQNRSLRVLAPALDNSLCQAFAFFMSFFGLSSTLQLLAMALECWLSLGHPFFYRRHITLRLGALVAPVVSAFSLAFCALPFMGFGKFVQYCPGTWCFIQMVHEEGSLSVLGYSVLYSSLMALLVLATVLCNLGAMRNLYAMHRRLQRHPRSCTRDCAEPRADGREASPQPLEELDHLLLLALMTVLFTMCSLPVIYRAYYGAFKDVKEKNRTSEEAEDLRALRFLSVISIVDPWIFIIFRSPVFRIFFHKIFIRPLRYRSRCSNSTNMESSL
As to the kind of experiment: FLIPR Ca2+ signaling antagonist assay, DP1 receptor stable cell line. The conditions noted are these: HEK-293 EBNA stable cells with chimeric Gqs, standard agonist BW 245C; NA = inactive (no antagonism or Kb≧10,000 nM). How it is done:
as §1, §2, §3, §4

In experiment [3] the target is T3, human prostanoid EP1 receptor (Homo sapiens, UniProt P34995).
T3 construct: expressed in transfected cells
T3 sequence (P34995 1-402): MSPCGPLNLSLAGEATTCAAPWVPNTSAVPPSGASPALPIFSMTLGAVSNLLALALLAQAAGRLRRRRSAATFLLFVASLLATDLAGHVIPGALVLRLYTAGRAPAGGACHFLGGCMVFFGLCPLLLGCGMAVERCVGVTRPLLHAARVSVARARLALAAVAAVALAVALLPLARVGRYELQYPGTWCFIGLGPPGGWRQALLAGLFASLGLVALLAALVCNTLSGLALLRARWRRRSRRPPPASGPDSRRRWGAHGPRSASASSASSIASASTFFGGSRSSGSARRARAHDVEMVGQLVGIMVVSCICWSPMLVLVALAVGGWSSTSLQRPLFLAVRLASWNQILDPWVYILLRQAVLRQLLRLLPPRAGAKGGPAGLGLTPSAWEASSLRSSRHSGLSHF
As to the kind of experiment: FLIPR Ca2+ signaling antagonist assay, EP1 receptor stable cell line. The settings on record: HEK-293 EBNA stable cells, standard agonist PGE2; NA = inactive (no antagonism or Kb≧10,000 nM). How it is done: as §1, §2, §3, §4

Experiment [4] addresses T4, human prostanoid EP2 receptor (Homo sapiens, UniProt P43116).
T4 construct: expressed in transfected cells
As to the kind of experiment: FLIPR Ca2+ signaling antagonist assay, EP2 receptor stable cell line. The conditions noted are these: HEK-293 EBNA stable cells with chimeric Gqs, standard agonist PGE2; NA = inactive (no antagonism or Kb≧10,000 nM). As to the method:
as §1, §2, §3, §4

In experiment [5] the target is T5, human prostanoid EP4 receptor (Homo sapiens, UniProt P35408).
T5 construct: expressed in transfected cells
T5 sequence (P35408 whole entry): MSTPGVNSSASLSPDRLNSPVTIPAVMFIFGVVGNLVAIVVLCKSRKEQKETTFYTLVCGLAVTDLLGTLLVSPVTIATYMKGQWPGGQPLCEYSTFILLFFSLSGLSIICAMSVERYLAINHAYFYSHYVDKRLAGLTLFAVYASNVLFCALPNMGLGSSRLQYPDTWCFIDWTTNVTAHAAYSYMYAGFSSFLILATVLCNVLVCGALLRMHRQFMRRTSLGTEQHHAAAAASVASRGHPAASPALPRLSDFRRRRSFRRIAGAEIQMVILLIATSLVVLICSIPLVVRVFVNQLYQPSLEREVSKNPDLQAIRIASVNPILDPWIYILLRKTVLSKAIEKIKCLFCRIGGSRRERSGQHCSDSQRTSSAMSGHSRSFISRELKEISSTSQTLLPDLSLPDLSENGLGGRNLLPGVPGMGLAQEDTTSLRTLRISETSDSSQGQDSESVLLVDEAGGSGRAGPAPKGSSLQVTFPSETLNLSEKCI
As to the kind of experiment: FLIPR Ca2+ signaling antagonist assay, EP4 receptor stable cell line. The conditions noted are these: HEK-293 EBNA stable cells with chimeric Gqs, standard agonist PGE2; NA = inactive (no antagonism or Kb≧10,000 nM). How it is done:
as §1, §2, §3, §4

For experiment [6], the target named is T6, human prostanoid IP receptor (Homo sapiens, UniProt P43119).
T6 construct: expressed in transfected cells
T6 sequence (P43119 whole entry): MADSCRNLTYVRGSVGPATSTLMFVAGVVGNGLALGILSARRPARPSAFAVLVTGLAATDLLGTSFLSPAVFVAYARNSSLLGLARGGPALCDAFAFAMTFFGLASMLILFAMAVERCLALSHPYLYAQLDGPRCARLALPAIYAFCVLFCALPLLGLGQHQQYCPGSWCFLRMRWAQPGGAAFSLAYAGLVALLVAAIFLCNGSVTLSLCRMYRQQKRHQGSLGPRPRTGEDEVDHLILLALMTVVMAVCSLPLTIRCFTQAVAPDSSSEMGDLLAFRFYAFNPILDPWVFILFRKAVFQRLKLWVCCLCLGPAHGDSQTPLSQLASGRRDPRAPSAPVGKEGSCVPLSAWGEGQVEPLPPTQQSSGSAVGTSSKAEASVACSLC
As to the kind of experiment: FLIPR Ca2+ signaling antagonist assay, IP receptor stable cell line. The settings on record: HEK-293 EBNA stable cells, standard agonist Cicaprost; NA = inactive (no antagonism or Kb≧10,000 nM). As to the method:
as §1, §2, §3, §4

The target in experiment [7] is T7, human prostanoid TP receptor (Homo sapiens, UniProt P21731).
T7 construct: expressed in transfected cells
T7 sequence (P21731 1-343): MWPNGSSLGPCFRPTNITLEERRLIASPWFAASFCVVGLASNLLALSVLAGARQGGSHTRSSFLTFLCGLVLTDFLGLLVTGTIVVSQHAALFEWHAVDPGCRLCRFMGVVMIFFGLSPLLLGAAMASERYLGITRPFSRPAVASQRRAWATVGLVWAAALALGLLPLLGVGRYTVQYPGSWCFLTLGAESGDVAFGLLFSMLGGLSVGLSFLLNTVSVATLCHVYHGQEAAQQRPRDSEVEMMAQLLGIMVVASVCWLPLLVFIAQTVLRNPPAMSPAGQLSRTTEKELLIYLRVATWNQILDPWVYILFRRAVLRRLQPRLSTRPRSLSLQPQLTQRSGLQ
As to the kind of experiment: FLIPR Ca2+ signaling antagonist assay, TP receptor stable cell line. The settings on record: HEK-293 EBNA stable cells, standard agonist U-46619; NA = inactive (no antagonism or Kb≧10,000 nM). How it is done: as §1, §2, §3, §4

In general, Kb refers to the equilibrium dissociation constant of an antagonist, usually derived from a functional assay.

T1 sequence (P43088 whole entry): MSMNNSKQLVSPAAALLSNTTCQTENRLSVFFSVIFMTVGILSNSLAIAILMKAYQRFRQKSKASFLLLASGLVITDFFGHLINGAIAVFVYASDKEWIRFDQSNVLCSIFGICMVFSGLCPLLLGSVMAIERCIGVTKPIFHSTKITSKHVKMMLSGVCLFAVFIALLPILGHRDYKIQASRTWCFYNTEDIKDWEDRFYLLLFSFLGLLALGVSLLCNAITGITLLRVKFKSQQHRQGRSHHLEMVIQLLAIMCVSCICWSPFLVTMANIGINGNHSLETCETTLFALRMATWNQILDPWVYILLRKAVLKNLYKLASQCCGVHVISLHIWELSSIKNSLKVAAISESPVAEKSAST
T4 sequence (P43116 whole entry): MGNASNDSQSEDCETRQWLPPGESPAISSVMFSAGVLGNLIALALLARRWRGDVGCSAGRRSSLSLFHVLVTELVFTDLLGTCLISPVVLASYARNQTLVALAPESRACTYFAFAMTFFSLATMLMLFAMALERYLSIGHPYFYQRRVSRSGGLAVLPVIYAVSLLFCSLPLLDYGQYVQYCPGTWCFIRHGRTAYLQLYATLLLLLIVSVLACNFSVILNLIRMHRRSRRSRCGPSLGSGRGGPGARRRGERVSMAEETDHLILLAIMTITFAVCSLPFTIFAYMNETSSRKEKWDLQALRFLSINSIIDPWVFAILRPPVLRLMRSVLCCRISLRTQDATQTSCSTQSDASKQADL

Consider `Cc1cc(CCC(=O)O)nn1Cc1cc(C(F)(F)F)ccc1OCC1CCCC1` [Example 5, 3-[1-(2-Cyclopentylmethoxy-5-trifluoromethylbenzyl)-5-methyl-1H-pyrazol-3-yl]-propionic acid], for which the Kb in experiment [1] was 0.063 µM; in experiment [2], 0.22 µM; in experiment [3] it was 0.024 µM; in experiment [4], 3.4 µM; in experiment [5], 0.24 µM; in experiment [6], 6.8 µM. Further, the Kb in experiment [7] came out at 0.007 µM.

`Cc1cc(CCC(=O)O)nn1Cc1cc(Cl)ccc1OCC1CCCC1` [Example 4a, 3-[1-(5-Chloro-2-cyclopentylmethoxybenzyl)-5-methyl-1H-pyrazol-3-yl]-propionic acid]: the Kb amounted to 0.11 µM in experiment [1]; 0.28 µM in experiment [2]; 0.08 µM in experiment [3]; 4.5 µM in experiment [4]; 0.18 µM in experiment [5]; 1.2 µM in experiment [6]. In experiment [7], the Kb stood at 0.003 µM.

These data come from patent publication US20140121258A1, “COMPOUNDS ACT AT MULTIPLE PROSTAGLANDIN RECEPTORS GIVING A GENERAL ANTI-INFLAMMATORY RESPONSE” (ALLERGAN, INC., priority 2010, published 2014).
